According to US7056491B2, “Monoterpenes and sesquiterpenes as chemotherapeutic and radiation sensitizers and immunomodulators” (Wisconsin Alumni Research Foundation, priority 2000, dated 2006):

Tests used:
[1] = tested on: T98G and U87MG cell lines; assay: Inhibition of Fas-induced apoptosis by antagonistic antibody ZB4; assay type: cell-based; conditions: 1 mM POH with CH11, absence of cycloheximide; inhibited by ZB4
Protocol: Referring to FIG. 26, semiconfluent culture plates T98G and U87MG cell lines were treated with the 1 mM POH in the presence or absence of the anti-CD95 antibody CH11 (100 ng/ml), cycloheximide (CX), the Fas-induced apoptosis blocking antibody ZB4 (2 ug/ml) or a combination of all for a period of 72 hours. Viability analysis was carried out using propidium iodide solution by flow cytometric analysis. Each graphed point in the figure represents the average values of duplicate samples.

[2] = tested on: glioma, prostate, melanoma and colon cell lines; assay: Cell cycle analysis by propidium iodide flow cytometry; assay type: cell-based; conditions: 1 mM POH 72 hours
Protocol: The indicated glioma (T98G, U251, U87, C6, U353 and MO59K), prostate (DU145 and PC3) melanoma (Mel5 and M21) and colon (DLD-1, HT29) cell lines were treated with medium or with 1 mM of POH dissolved in medium for 72 hours. The cells were harvested, fixed stained with propidium iodide and analyzed by flow cytometry to estimate the various phases of the cell cycle. Each point on the graph represents mean values of duplicate dishes.

[3] = tested on: glioma and prostate cancer cell lines; assay: Apoptosis by dual colored (PI and Annexin V) flow cytometry; assay type: cell-based, human; conditions: 1 mM POH, 72 hours
Protocol: Glioma (T98G, U251, U353, U87 and MO59K) and prostate (DU145, PC3) cell lines were treated with or without 1 mM perillyl alcohol (POH) for 72 hours. The cells were harvested by trypsinization washed with PBS and subsequently staimed with antibody to annexin V conjugated to FITC and with PI (10 μg/ml). Viable (annexin V^−/PI^−) pre-apoptotic (annexin V^+/PI^−), apoptotic (annexin V^+/PI^+), and the residual damaged (annexin V^−/PI^+) cells were quantitated using this protocol.

U251 cells = assay: Clonogenic survival assay, POH with or without radiation, U251; assay type: cell-based, human
Protocol: Subconfluent cultures of human glioma cell line U251 were treated with 0.1–0.5 mM of POH for 72 hours and subsequently to increasing doses of radiation from 0.1 Gy to 8.5 Gy. Control cells were treated with the indicated doses of radiation alone. The cells were harvested and an optimum number of cells were allowed to grow for 14 days. The resulting colonies were stained and counted. Each graphed point represents mean values ± SE values of triplicate dishes.
(§1) Table 1 summarizing data from different cell lines treated with radiation, radiation plus POH, and POH alone. Subconfluent cultures of human glioma (T98G, M059K, U251), prostate (DU145, PC3), colon (DLD-1, HT29) and pancreatic (MIAPACA) cancer cell lines were treated with 0.1–0.5 mM of POH for 72 hours and subsequently to increasing doses of radiation from 0.1 Gy to 8.5 Gy. Control cells were treated with medium alone. The cells were harvested and an optimum number of cells were allowed to grow for 14 days. The resulting colonies were stained and counted. Each graphed point represents mean values ± SE values of triplicate dishes. Percentage survival was determined as the ratio of plating efficiencies for each irradiated group to that of the unirradiated control.

Fas receptor = Fas receptor (CD95) staining by flow cytometry; assay type: cell-based, human; conditions: 0.1 mM–1 mM POH 72 hours; same cell lines except U87MG
Protocol: The cells were harvested using cell dissociation solution, and the resulting cell pellet was washed and incubated with biotinylated anti-human antibody, which served as a control to eliminate non-specific binding. Following the primary antibody incubation the cells were washed and subsequently stained with secondary antibody conjugated to phycoerythrin (PE) (PharMingen) and antibody to CD95 directly conjugated to allophycocyanin (APC). The stained cells were analyzed using a Beckton-Dickinson FACStar plus and the results were acquired using CELLquest software.
Subconfluent cultures of the indicated glioma (T98G, U251, U353, U87MG), prostate (DU145, PC3), colon (DLD-1) and melanoma (Mel5) cell lines were treated with varying concentrations of POH (0.1 mM–1 mM POH) dissolved in medium for 72 hours. At the end of the incubation, the cells were harvested using cell dissociation solution, and the resulting cell pellet was washed and incubated with biotinylated anti-human antibody to the FasL (PharMingen) or with an isotype matched anti-human antibody, which served as a control to eliminate non-specific binding. […] The stained cells were analyzed using a Beckton-Dickinson FACStar plus and the results were acquired using CELLquest. […]

[4] = tested on: glioma, prostate, colon and melanoma cell lines; assay: Apoptosis by flow cytometry of propidium iodide stained cells (sub G0/G1 peak); assay type: cell-based, human; conditions: 72 hours
From the text: In the present study we evaluated the effect of POH treatment on a panel of human glioma (T98G, MO59K, U-87, U-373, U-251), prostate cancer cell lines (PC3 and DU145), colon (DLD-1, HT29), melanoma (Mel5, M21).

DLD-1 colon cancer cells = assay: Clonogenic survival assay, POH with or without radiation, DLD-1; assay type: cell-based, human
Protocol: as §1

[5] = tested on: MIAPACA pancreatic cancer cells; assay: Clonogenic survival assay, POH with or without radiation, MIAPACA; assay type: cell-based, human
Protocol: as §1

pancreatic carcinoma = conditions: POH-fed hamsters; control animals showed tumor growth; cited from earlier work
[6] = tested on: glioma and prostate cancer cell lines; assay: Augmentation of CD95 (Fas)-mediated apoptosis with anti-CD95 antibody CH11; assay type: cell-based; conditions: T98G, U87, U353, U251; 1 mM POH with CH11, absence of cycloheximide
Protocol: Referring to FIG. 25, semiconfluent cultures of glioma and prostate cancel cell lines were treated with the 1 mM POH in the presence or absence of the anti-CD95 antibody CH11 (100 ng/ml), radiation (8.5 Gy for T98G, U87MG, U373 and 5.5 Gy for PC3 and DU145), cycloheximide (CX) or a combination of all for a period of 72 hours. Cells treated with cycloheximide and anti-Fas served as a positive control. The death by treating cells with 1 mM POH or radiation alone was also quantitated. The estimation of apoptosis was done by staining the harvested cells with propidium iodide as described before. Each graphed point in the figure represents the average values of duplicate samples.

SMILES: C=C(C)[C@@H]1CC=C(CO)CC1 [POH, Perillyl alcohol]
- Fas-mediated apoptosis [1]: augmented Fas-mediated apoptosis
- cell cycle effect ([2]; MO59K): G0/G1 block
- cell cycle effect ([2]; all the cell lines except MO59K): block in the G2/M phase
- early and late apoptotic cells (annexin V/PI) [3]: increase in the percentage of early as well as late apoptotic cells
- % SURVIVAL (U251 cells; 0.1 mM POH 72 h, no radiation): 1.066 ± 0.200%
- % SURVIVAL (U251 cells; 0.1 mM POH + 5.5 Gy): 0.253 ± 0.004%
- % SURVIVAL (U251 cells; 0.3 mM POH 72 h, no radiation): 0.397 ± 0.059%
- % SURVIVAL (U251 cells; 0.3 mM POH + 5.5 Gy): 0.046 ± 0.005%
- % SURVIVAL (U251 cells; 0.5 mM POH 72 h, no radiation): 0.257 ± 0.010%
- % SURVIVAL (U251 cells; 0.5 mM POH + 5.5 Gy): 0.019 ± 0.001%
- levels of the Fas receptor (Fas receptor): did not alter
- effect of higher concentrations on tumor cell lines ([4]; 1 mM POH): cell death via apoptosis
- toxicity to tumor cell lines ([4]; clinically relevant doses 0.1 mM–0.5 mM): relatively non-toxic
- % SURVIVAL (DLD-1 colon cancer cells; 0.1 mM POH 72 h, no radiation): 1.690 ± 0.100%
- % SURVIVAL (DLD-1 colon cancer cells; 0.1 mM POH + 5.5 Gy): 0.038 ± 0.009%
- % SURVIVAL (DLD-1 colon cancer cells; 0.3 mM POH 72 h, no radiation): 0.899 ± 0.070%
- % SURVIVAL (DLD-1 colon cancer cells; 0.3 mM POH + 5.5 Gy): 0.050 ± 0.003%
- % SURVIVAL (DLD-1 colon cancer cells; 0.5 mM POH 72 h, no radiation): 0.019 ± 0.001%
- % SURVIVAL (DLD-1 colon cancer cells; 0.5 mM POH + 5.5 Gy): 0.001 ± 0.001%
- % SURVIVAL ([5]; 0.1 mM POH 72 h, no radiation): 1.503 ± 0.05%
- % SURVIVAL ([5]; 0.1 mM POH + 5.5 Gy): 0.154 ± 0.018%
- % SURVIVAL ([5]; 0.3 mM POH 72 h, no radiation): 0.750 ± 0.05%
- % SURVIVAL ([5]; 0.3 mM POH + 5.5 Gy): 0.059 ± 0.008%
- % SURVIVAL ([5]; 0.5 mM POH 72 h, no radiation): 0.450 ± 0.07%
- % SURVIVAL ([5]; 0.5 mM POH + 5.5 Gy): 0.015 ± 0.0027%
- antitumor effect in pancreatic carcinoma models (pancreatic carcinoma): either regression or no growth of the tumors
- sensitization to Fas mediated apoptosis [6]: sensitized
